Tested on: peripheral blood monocytes
Test: Comparison of stem cell-inducing activities of various gangliosides (viable cells, CellTiter-Glo)
Type: cell-based, human
Settings: gangliosides 100 μg/ml, rhM-CSF 25 ng/ml, second week of culture
Experimental: More specifically, gangliosides were added to a culture medium at a final concentration of 100 μg/ml, and peripheral blood monocytes were cultured.
rhM-CSF was added thereto at a final concentration of 25 ng/ml. Then, the number of viable cells in the second week of culture was quantified as luciferase activity using CellTiter-Glo (Promega).

Substance	stem cell-inducing activity (number of viable cells as luciferase activity, FIG. 3)
aNeu5Ac(2-3)bDGalp(1-3)bDGalNAc(1-4)[aNeu5Ac(2-3)]bDGalp(1-4)bDGlcp(1-1)Cer [GD1a]	equally-strong stem cell-inducing activities
aNeu5Ac(2-3)bDGalp(1-3)bDGalNAc(1-4)[aNeu5Ac(2-8)aNeu5Ac(2-3)]bDGalp(1-4)bDGlcp(1-1)Cer [GT1b]	equally-strong stem cell-inducing activities
bDGalp(1-3)bDGalNAc[aNeu5Ac(2-3)]bDGalp(1-4)bDGlcp(1-1)Cer [GM1]	equally-strong stem cell-inducing activities

From patent publication US9169463B2, “Stem cell for therapeutic use which is derived from human monocyte, and method for inducing same” (OTSUKA PHARMACEUTICAL CO., LTD., priority 2008, dated 2015)
